From PubChem BioAssay AID493156 (Johns Hopkins Ion Channel Center, 2011)

Target: Voltage-gated inwardly rectifying potassium channel KCNH2 (Homo sapiens) (UniProt Q12809)
Test: blockers of hERG current – automated electrophysiology, CHO cells, Ionworks Quattro, primary screen (AID 493156)
Settings: automated patch clamp current, stronger effect = lower value

Chain of Voltage-gated inwardly rectifying potassium channel KCNH2 (Homo sapiens) (Q12809 whole entry, looked up): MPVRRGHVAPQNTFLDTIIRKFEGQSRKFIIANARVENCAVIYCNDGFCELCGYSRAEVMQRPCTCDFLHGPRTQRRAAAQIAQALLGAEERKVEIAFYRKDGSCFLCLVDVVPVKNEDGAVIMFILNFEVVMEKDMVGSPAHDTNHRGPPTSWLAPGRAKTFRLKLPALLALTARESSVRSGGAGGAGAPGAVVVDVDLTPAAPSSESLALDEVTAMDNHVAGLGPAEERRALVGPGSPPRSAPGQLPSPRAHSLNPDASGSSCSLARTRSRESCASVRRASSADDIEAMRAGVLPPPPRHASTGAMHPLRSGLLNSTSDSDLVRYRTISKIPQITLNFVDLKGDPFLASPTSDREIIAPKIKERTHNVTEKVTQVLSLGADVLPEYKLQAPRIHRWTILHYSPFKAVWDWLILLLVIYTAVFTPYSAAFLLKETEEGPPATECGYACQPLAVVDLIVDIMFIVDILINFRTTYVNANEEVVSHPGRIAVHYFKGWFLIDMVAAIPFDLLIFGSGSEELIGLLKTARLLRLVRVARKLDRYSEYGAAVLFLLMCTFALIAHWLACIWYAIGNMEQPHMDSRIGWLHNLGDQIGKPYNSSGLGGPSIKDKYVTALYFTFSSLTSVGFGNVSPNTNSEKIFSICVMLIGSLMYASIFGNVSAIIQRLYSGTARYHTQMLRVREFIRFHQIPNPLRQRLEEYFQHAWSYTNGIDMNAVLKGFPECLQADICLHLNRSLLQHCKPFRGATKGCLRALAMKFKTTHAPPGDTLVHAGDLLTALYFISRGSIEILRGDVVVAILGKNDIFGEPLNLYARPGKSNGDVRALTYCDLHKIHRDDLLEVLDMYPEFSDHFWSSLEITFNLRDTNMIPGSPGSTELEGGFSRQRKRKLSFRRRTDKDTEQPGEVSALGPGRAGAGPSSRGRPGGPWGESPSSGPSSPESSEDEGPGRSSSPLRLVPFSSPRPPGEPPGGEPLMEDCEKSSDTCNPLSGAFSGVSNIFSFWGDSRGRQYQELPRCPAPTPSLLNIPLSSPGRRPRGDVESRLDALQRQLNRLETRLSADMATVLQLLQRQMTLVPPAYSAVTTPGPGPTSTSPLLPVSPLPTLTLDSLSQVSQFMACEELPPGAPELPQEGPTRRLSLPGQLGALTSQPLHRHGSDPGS

SMILES	current change, negative = inhibition (at 10 µM) [%]	current change, negative = inhibition (current change, at 1 µM) [%]
Cc1ccccc1CN1CCN(C(=O)c2cc(-c3ccncc3)nc3ccccc23)CC1	-100	-25.6
Cc1ccccc1C(=O)Nc1ccnn1C1CCN(Cc2cccnc2)CC1	-100	-58.5
Cc1ccc(-n2ncc3c2CCCC3NC(=O)c2ccoc2)cc1C (stereo not drawn)	-100	-88.6
O=C(c1cccc(-c2ccco2)c1)N1CCCC(N2CCN(c3ccc(F)cc3)CC2)C1 (stereo not drawn)	-100	-45.2
Cc1cc(C)n(CCCN2CCC(C(=O)Nc3cccc(-c4cccc(F)c4)c3)CC2)n1	-100	-69.7
CCc1ccc(CN2CCC(Oc3ccc(C(=O)N4CCCC4)cc3)CC2)cc1	-100	-87.6
Cc1occc1C(=O)N1CCN(c2ccc([N+](=O)[O-])cc2)CC1	-100	-55.3
CCn1cc(CN2CCC(C(=O)Nc3cccc(-c4cccc(Cl)c4)c3)CC2)c(C)n1	-100	-48.6
CSc1cccc(CN2CCCC(CNC(=O)c3ccco3)C2)c1 (stereo not drawn)	-100	-57.7
